pIC50: −log10 of the molar value.
target: T1, human melatonin receptor (human ML1A) (Homo sapiens, UniProt P48039); experiment: Melatonergic binding: displacement of 2-[125I]-iodomelatonin at the human melatonin receptor (human ML1A in COS-1 membranes); conditions: Table 5; displacement of 2[125I]-Iodomelatonin (100 pM), 37° C., 1 hour
T1 construct: expressed in transfected cells; host or cells: COS-1 cells (transient, pcDNAI, DEAE-dextran); membrane homogenates
Experimental: The melatonergic binding of the compounds of Formula I was determined by a modification of the method of Reppert, S. M. et al. (Neuron, Volume 13, pages 1177-1185, 1994). […] The reagents, membranes, and other parameters used in the assay are described below:
(a) 50 mM Tris buffer containing 12.5 mM MgCl2, and 2 mM EDTA (pH 7.4 at 37° C.).
(b) Wash buffer: 20 mM Tris base containing 2 mM MgCl2 (pH 7.4 at room temperature).
(c) 6-Chloromelatonin (10^-5 M final concentration).
(d) 2-[^125 I]-Iodomelatonin (100 pM final concentration). (Source: NEN) Membrane preparation: The cDNA (human ML1A) in pcDNAI was introduced into COS-1 cells by the DEAE-dextran method. Three days later, after media removal, the plates were washed with buffered saline; the cells removed using Hank's balanced salt solution and pelleted. The supernant was discarded and the pellets frozen. For membrane homogenates, the pellets were thawed and resuspended in TME buffer, Tris base, MgCl2, EDTA (pH 7.4 at 37° C.), and supplemented with aprotinin, leupeptin, and phenylmethylsulfonyl fluoride. The cells were homogenized and centrifuged; the resulting pellet resuspended in TME and frozen. At assay, the small aliquot was thawed on ice and resuspended in TME buffer. Incubation: 37° C. for 1 hour. Reaction is terminated by filtration.

T1 sequence (P48039 whole entry): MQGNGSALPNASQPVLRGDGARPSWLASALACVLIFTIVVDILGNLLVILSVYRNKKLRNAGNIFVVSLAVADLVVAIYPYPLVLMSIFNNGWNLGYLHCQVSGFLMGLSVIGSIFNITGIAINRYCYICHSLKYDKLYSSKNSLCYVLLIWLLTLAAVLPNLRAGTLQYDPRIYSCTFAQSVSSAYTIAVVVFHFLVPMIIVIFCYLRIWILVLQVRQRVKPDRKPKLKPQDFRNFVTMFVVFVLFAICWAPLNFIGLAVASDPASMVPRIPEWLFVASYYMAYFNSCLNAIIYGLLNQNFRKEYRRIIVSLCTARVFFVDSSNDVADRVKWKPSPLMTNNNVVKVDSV

CCCCCCCCCCCOc1cccc([C@@H]2C[C@H]2CNC(=O)CCC)c1 (relative stereo) [Example 57, (trans)-N-[[2-[(3-Undecyloxy)phenyl]cyclopropyl]methyl] butanamide] and CCCCCCCCCCCCOc1cccc([C@@H]2C[C@H]2CNC(=O)CCC)c1 (relative stereo) [Example 58, (trans)-N-[[2-[(3-Dodecyloxy)phenyl]cyclopropyl]methyl] butanamide] fall in the same range of pIC50: 7.40 to 8.30 for the first, 7.40 to 8.30 for the second.

Compared with CCCCCCCCCCCCCCCCOc1cccc([C@@H]2C[C@H]2CNC(=O)CCC)c1 (relative stereo) [Example 59], CCCC(=O)NC[C@@H]1C[C@H]1c1cccc(OCCCCC(C)C)c1 (relative stereo) [Example 100, (trans)-N-[[2-[3-(5-Methylhexyloxy)phenyl]cycloprop-1-yl]methyl] butanamide] is higher in pIC50: 6.22 to 6.60 for the first, 7.40 to 8.30 for the second.

CCCC(=O)NC[C@@H]1C[C@H]1c1cccc(OCCc2ccccc2)c1 (relative stereo) [Example 60, (trans)-N-[[2-[3-[(2-Phenylethyl)oxy]phenyl]cyclopropyl]methyl] butanamide] and CCCC(=O)NC[C@@H]1C[C@H]1c1cccc(OCCCc2ccccc2)c1 (relative stereo) [Example 95, (trans)-N-[[2-[3[(3-Phenylprop-1-yl)oxy]phenyl]cycloprop-1-yl]methyl] butanamide] fall in the same range of pIC50: 7.40 to 8.30 for the first, 7.40 to 8.30 for the second.

First: CCCC(=O)NC[C@@H]1C[C@H]1c1cccc(OCC(C)C)c1 (relative stereo) [Example 61]
Second: CCCC(=O)NC[C@@H]1C[C@H]1c1cccc(OCCCF)c1 (relative stereo) [Example 94]
The pIC50 of the first is lower: 6.22 to 6.60 for the first, 6.60 to 7.40 for the second.

First: CCCC(=O)NC[C@@H]1C[C@H]1c1cccc(OCCCc2cccc(OC)c2)c1 (relative stereo) [Example 62, (trans)-N-[[2-[3-[3-(3-Methoxyphenyl)propoxy]phenyl]cyclopropyl]methyl] butanamide]
Second: CCCC(=O)NC[C@@H]1C[C@H]1c1cccc(OCCCc2ccncc2)c1 (relative stereo) [Example 63]
The pIC50 of the first is higher: 7.40 to 8.30 for the first, 6.60 to 7.40 for the second. The first is the more potent here.

CCCC(=O)NC[C@@H]1C[C@H]1c1cc(OC(F)(F)F)ccc1Br (relative stereo) [Example 72] and CCCC(=O)NC[C@@H]1C[C@H]1c1cc(F)ccc1F (relative stereo) [Example 87, (trans)-N-[[2-(2,5-Difluorophenyl)cycloprop-1-yl]methyl] butanamide] fall in the same range of pIC50: 6.60 to 7.40 for the first, 6.60 to 7.40 for the second.

CCCC(=O)NC[C@@H]1C[C@H]1c1cccc(Br)c1 (relative stereo) [Example 73, (trans)-N-[[2-(3-Bromophenyl)cycloprop-1-yl]methyl] butanamide] and CCCC(=O)NC[C@@H]1C[C@H]1c1cccc(C)c1 (relative stereo) [Example 75, (trans)-N-[[2-(3-Methylphenyl)cycloprop-1-yl]methyl] butanamide] fall in the same range of pIC50: 7.40 to 8.30 for the first, 7.40 to 8.30 for the second.

Compared with CC(=O)NC[C@@H]1C[C@H]1c1cccc(C)c1 (relative stereo) [Example 78, (trans)-N-[[2-(3-Methylphenyl)cycloprop-1-yl]methyl] acetamide], CCCC(=O)NC[C@@H]1C[C@H]1c1cccc(Cl)c1 (relative stereo) [Example 80, (trans)-N-[[2-(3-Chlorophenyl)cycloprop-1-yl]methyl] butanamide] is higher in pIC50: 6.60 to 7.40 for the first, 7.40 to 8.30 for the second.

CCCC(=O)NC[C@@H]1C[C@H]1c1cccc(OCCCOc2ccccc2)c1 (relative stereo) [Example 96, (trans)-N-[[2-[3[(3-Phenoxyprop-1-yl)oxy]phenyl]cycloprop-1-yl]methyl] butanamide] and CCCC(=O)NC[C@@H]1C[C@H]1c1cccc(OCCCn2cccc2)c1 (relative stereo) [Example 98] fall in the same range of pIC50: 7.40 to 8.30 for the first, 7.40 to 8.30 for the second.

Work on CCCC(=O)NC[C@@H]1C[C@H]1c1cccc(OCC=C(C)CCC=C(C)C)c1 (relative stereo) [Example 99, (trans)-N-[[2-[3[(3-Dimethylocta-2,6-dien-1-yl)oxy]phenyl]cycloprop-1-yl]methyl] butanamide] yielded a pIC50 of 7.40 to 8.30.
